Activity calls are given as the source filed them.
Assays:
[1] = biological target: FAD-linked sulfhydryl oxidase ALR (Homo sapiens, UniProt P55789); experiment: ALR-catalysed DTT oxidation blockers – biochemical, H2O2 detection, luminescence, cherry-pick, dose response (AID 493248)
[2] = biological target: T1, RNA-binding protein pos-1 (Caenorhabditis elegans, UniProt G5EF15); experiment: disruptors of C. elegans POS-1 RNA interaction – biochemical, fluorescence polarization, dose response (AID 1964);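 also: purified POS-1 fused to maltose binding protein made in E. coli; potency of compounds blocking POS-1 binding to fluorescent RNA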
T1 sequence (G5EF15 whole entry): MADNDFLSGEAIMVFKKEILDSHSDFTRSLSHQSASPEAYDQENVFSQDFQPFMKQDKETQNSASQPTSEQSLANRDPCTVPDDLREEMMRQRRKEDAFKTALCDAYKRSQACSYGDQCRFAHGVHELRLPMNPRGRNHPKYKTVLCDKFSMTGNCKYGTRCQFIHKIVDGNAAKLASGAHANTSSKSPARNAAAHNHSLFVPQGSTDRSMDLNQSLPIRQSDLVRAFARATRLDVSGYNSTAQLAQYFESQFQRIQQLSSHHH

[3] = biological target: T2, Zinc finger protein mex-5 (Caenorhabditis elegans, UniProt Q9XUB2); experiment: potency of MEX-5 RNA-binding blockers – biochemical, C. elegans, fluorescence polarization, dose response (AID 1960)
T2 sequence (Q9XUB2 whole entry): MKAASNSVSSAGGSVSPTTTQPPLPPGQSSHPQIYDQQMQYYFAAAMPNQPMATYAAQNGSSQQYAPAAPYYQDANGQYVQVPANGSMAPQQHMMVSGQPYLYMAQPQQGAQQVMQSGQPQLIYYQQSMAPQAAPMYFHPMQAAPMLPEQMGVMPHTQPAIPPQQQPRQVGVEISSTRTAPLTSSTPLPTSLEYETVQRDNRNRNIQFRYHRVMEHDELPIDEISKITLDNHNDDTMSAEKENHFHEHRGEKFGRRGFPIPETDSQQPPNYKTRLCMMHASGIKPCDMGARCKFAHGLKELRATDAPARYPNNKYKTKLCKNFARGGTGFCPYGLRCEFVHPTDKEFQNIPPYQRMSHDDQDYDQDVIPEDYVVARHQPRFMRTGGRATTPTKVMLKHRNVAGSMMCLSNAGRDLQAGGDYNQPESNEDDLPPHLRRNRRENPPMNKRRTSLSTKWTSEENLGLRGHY

Large T antigen = Large T antigen (Simian virus 40, UniProt P03070); format: functional, Betapolyomavirus macacae;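 also: Confirmatory-stage PubChem screen for compounds that inhibit SV40 T antigen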
Chain of Large T antigen (P03070 whole entry): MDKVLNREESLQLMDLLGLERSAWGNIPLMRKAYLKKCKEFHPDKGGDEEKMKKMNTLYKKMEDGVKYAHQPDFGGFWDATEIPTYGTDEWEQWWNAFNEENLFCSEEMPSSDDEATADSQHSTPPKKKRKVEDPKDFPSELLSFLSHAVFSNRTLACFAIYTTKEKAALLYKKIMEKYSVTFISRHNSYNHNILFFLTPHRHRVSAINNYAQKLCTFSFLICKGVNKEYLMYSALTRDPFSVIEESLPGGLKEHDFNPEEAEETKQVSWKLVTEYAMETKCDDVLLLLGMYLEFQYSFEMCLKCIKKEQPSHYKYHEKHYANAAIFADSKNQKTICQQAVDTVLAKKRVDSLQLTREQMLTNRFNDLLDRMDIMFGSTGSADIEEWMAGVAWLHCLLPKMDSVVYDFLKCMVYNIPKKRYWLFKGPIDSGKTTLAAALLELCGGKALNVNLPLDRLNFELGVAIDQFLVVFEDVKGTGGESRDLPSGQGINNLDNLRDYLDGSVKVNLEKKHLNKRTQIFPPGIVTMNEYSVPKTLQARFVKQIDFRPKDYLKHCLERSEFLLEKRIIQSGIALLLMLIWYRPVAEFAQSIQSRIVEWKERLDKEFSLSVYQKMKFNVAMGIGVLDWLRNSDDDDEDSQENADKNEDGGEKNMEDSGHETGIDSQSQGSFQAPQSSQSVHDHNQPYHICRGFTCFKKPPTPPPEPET

[4] = biological target: Induced myeloid leukemia cell differentiation protein Mcl-1 (Homo sapiens, UniProt Q07820); format: functional
Chain of Induced myeloid leukemia cell differentiation protein Mcl-1 (Q07820 whole entry): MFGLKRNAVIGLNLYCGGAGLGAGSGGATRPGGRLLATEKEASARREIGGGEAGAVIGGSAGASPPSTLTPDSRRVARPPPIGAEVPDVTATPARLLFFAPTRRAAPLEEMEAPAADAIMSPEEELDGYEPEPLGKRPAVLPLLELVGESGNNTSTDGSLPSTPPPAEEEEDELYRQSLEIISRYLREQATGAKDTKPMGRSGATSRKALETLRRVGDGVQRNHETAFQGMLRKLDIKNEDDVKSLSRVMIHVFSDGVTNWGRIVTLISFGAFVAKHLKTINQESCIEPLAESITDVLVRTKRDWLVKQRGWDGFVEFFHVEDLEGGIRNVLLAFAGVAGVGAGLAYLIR

H9c2 = experiment: cells; format: functional, cell-based; details: Rattus norvegicus, H9c2, Myocardium;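 also: confirmatory concentration-response retest of ultra-high-throughput screening hits for modulation of myocardial damage; cell death induced by hydrogen peroxide oxidative stress; compound pretreatment for 60 min then peroxide exposure for 2 h; potency is for protecting the cells against peroxide damage rather than for killing them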
[5] = biological target: T3, High affinity choline transporter 1 (Homo sapiens, UniProt Q9GZV3); experiment: human choline transporter blockers, potency – cell-based, 5-point CRC, membrane potential dye, dose response (AID 504840); format: functional
T3 sequence (Q9GZV3 whole entry): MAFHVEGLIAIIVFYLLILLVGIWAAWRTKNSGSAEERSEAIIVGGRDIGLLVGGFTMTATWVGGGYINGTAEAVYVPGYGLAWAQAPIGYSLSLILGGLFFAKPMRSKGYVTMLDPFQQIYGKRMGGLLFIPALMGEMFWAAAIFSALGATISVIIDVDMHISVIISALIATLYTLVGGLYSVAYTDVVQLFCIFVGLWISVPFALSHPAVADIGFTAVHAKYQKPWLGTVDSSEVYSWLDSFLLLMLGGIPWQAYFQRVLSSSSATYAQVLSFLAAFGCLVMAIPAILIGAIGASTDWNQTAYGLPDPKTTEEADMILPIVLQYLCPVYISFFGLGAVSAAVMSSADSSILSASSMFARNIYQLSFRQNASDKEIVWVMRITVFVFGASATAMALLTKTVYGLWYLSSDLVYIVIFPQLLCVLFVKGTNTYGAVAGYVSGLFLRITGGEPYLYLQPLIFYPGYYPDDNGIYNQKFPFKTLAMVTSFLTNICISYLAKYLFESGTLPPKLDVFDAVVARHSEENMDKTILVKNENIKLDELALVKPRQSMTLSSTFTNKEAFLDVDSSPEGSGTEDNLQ

[6] = viability of PTEN-deleted HCT116 cells – cell-based, HCT116 PTEN knockout, dose response (AID 1047); format: functional;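 also: HCT116 colon tumor cells with PTEN knocked out; cells exposed to compound for 60 hours before readout; potency for loss of cell viability measured by luminescence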
[7] = viability of HCT116 lacking mutant beta-catenin – cell-based, human colon tumor, dose response (AID 1045); format: functional;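 also: HCT116 colon tumor cells with beta catenin knocked out; cells exposed to compound for 60 hours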
[8] = biological target: T4, Calpain-2 catalytic subunit (Sus scrofa, UniProt P43367); experiment: m-calpain protease blockers, concentration series – biochemical, fluorogenic peptide substrate, dose response (AID 1420); format: functional
T4 sequence (P43367 whole entry): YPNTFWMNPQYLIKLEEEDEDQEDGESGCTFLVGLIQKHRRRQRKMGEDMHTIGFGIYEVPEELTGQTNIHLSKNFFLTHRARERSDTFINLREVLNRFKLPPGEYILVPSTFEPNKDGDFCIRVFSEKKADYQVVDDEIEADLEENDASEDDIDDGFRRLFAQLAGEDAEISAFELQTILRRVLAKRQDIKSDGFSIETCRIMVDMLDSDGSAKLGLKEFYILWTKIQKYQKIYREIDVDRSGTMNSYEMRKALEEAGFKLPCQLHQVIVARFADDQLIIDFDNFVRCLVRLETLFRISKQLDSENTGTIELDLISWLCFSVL

[9] = viability of uninfected HEp-2 cells – cell-based, HTS, cytotoxicity control for RSV inhibitor project, dose response (AID 2410); format: functional; details: human respiratory syncytial virus
Paired box protein Pax-8 = Paired box protein Pax-8 (Homo sapiens, UniProt Q06710); experiment: PAX8 transcriptional activity inhibition in RMG-I – RMG-I cells, luciferase, cherry-pick, dose response (AID 687027); format: functional, cell-based;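 also: luciferase reporter driven by Pax8 target thyroperoxidase promoter measured by SteadyGlo luminescence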
Chain of Paired box protein Pax-8 (Q06710 whole entry, the tested form may be a part): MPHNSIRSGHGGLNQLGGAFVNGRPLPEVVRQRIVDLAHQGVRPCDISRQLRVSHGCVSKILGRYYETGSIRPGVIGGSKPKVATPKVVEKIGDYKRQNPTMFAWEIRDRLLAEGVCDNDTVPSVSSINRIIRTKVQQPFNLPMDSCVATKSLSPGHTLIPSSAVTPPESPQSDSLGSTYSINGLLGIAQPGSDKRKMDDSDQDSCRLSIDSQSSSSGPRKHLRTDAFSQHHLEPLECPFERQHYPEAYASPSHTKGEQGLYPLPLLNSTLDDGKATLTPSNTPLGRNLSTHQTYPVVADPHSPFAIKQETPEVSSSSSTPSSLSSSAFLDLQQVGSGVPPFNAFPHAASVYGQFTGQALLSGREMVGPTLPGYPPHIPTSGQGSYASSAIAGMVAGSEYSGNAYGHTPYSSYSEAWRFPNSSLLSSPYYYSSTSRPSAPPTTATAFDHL

[10] = blockers of HIV-1 envelope-mediated cell-cell fusion – cherry-pick, dose response (AID 652057); format: functional, cell-based
[11] = off-target signal loss in HeLa-CEM21 co-culture – HeLa F-luc CTL cells, cherry-picked, counter-screen for HIV-1 Env fusion inhibitor project, dose response (AID 652040); format: functional, cell-based;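 also: potency for signal decrease marking cytotoxic or nonspecific inhibition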
[12] = biological target: T5, Rac GTPase-activating protein 1 (Homo sapiens, UniProt Q9H0H5); experiment: blockers of MgcRacGAP-driven Rac1 GTP hydrolysis – biochemical, ADP Hunter fluorescence, primary and confirmatory, confirmation (AID 624330); format: functional
T5 sequence (Q9H0H5 whole entry): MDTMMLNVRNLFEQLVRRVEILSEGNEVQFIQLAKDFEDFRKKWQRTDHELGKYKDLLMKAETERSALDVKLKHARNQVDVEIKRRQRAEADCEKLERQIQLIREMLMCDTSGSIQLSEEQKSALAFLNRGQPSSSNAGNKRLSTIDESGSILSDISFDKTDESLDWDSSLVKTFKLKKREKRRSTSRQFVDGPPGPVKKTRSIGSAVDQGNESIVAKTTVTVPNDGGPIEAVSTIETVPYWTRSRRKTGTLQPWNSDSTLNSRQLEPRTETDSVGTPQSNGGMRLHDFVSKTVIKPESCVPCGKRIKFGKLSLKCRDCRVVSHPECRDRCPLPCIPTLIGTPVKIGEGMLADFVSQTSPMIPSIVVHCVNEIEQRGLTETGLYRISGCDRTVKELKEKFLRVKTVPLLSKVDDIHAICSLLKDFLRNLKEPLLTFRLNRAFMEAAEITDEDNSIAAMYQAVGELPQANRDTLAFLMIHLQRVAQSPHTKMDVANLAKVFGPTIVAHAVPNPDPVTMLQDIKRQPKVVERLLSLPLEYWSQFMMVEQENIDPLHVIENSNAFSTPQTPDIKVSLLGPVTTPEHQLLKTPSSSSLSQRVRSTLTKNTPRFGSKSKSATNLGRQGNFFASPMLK

Chain of FAD-linked sulfhydryl oxidase ALR (P55789 whole entry, the tested form may be a part): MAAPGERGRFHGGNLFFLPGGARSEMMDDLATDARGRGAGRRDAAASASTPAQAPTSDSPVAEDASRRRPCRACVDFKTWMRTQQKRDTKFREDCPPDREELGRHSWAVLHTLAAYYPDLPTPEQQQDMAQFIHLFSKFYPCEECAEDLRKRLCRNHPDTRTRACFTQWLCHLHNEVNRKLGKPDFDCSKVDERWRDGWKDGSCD

COc1ccc(C(=O)NNS(=O)(=O)c2ccc(OC)cc2)cc1
AC50 [1]: 12.7 µM (active)

O=C1NC(=O)N(c2ccccc2)C(=O)/C1=C\c1ccc2c3c(cccc13)CC2
EC50 [2]: > 300 µM (not active)
EC50 [3]: > 300 µM (not active)
IC50 (Large T antigen): 68.4 µM (active)
IC50 [4]: 5.04 µM (active)

COc1ccnc(Oc2ccc(F)cc2)c1C(=O)N=CNOCc1ccc(Cl)cc1Cl
IC50 (H9c2): > 79 µM (inactive)

Nc1ccc2c(c1)-c1ccccc1S(=O)(=O)N2
EC50 [2]: > 300 µM (not active)
EC50 [3]: 12.2 µM (active)
IC50 (Large T antigen): 3.99 µM (active)

c1ccc(CCNc2c3c(nc4ncnn24)CCC3)cc1
IC50 [5]: 10.1 µM (active)

S=C(NCC1CCCO1)Nc1cc(Cl)c(Cl)cc1Cl (stereo not given)
IC50 [5]: 14.5 µM (active)

CN(C)c1ccc(NC(=O)Cn2ncn3c(cc4ccccc43)c2=O)cc1
IC50 (Large T antigen): 29.6 µM (active)
IC50 [4]: 3.14 µM (active)

COc1ccc2nc(SCC(=O)Nc3ccc4sc(C)nc4c3)c(C#N)cc2c1
EC50 [6]: 21.3 µM (active)
EC50 [7]: 20 µM (active)

Cc1ccc2nc(N(CCCN(C)C)C(=O)CCc3ccccc3)sc2c1
EC50 [6]: 16.6 µM (active)
EC50 [7]: 16.6 µM (active)

Cc1ccc(NC(=O)CN2C(=O)/C(=C3\SC(=S)N(C4CCS(=O)(=O)C4)C3=O)c3ccccc32)cc1 (stereo not given)
IC50 [8]: 9.72 µM (not active)
IC50 [4]: 24.1 µM (active)

Cc1ccc(OCCN2CCN(CC(O)Cn3c4ccccc4c4ccccc43)CC2)cc1 (stereo not given)
EC50 [6]: 13.6 µM (active)
EC50 [7]: 10.9 µM (active)

Cc1ccc(CNC(=O)c2oc3ccc(S(=O)(=O)N4CCOCC4)cc3c2C)cc1
IC50 [8]: 23.5 µM (not active)
IC50 (H9c2): > 79 µM (inactive)

CSc1nc(Cl)cc(Nc2ccc(O)cc2)n1
IC50 (Large T antigen): 17.8 µM (active)

N=c1sccn1CC(=O)Nc1ccc(SC(F)F)cc1
AC50 [1]: 1.68 µM (active)

CCN(CC(=O)Nc1c(C(=O)OC)[nH]c2ccc(Cl)cc12)c1ccc2c(c1)OCO2
EC50 [6]: 19.4 µM (active)
EC50 [7]: 27.7 µM (active)

COc1ccc(C2=CC3=C(Br)C(=O)C(C)(OC(=O)c4ccc(Cl)nc4)C(=O)C3=CO2)cc1 (stereo not given)
EC50 [2]: > 300 µM (not active)
EC50 [3]: > 300 µM (not active)
IC50 (Large T antigen): 56.7 µM (active)

CCOc1ccc(-n2c(SCC(=O)Nc3cc(C)on3)nc3c4ccccc4nc-3c2O)cc1
EC50 [6]: 28.4 µM (active)
EC50 [7]: 28.6 µM (active)

CCOC(=O)c1cn(-c2nc(-c3ccc(Cl)c(Cl)c3)cs2)c2c(F)c(N3CCOCC3)c(F)cc2c1=O
CC50 [9]: 28.4 µM (active)
EC50 [6]: 8.96 µM (active)
EC50 [7]: 18.6 µM (active)

CC[C@@H](C)[C@H](NC(=O)Cc1c(C)c2cc3c(C)coc3c(C)c2oc1=O)C(=O)O
AC50 [1]: 2.39 µM (active)

COC(=O)Nc1ccc(S(=O)(=O)Nc2ccc(O)cc2)cc1
AC50 [1]: 1.38 µM (active)

COc1ccc(NC(=O)C(Sc2nnc(-c3ccncc3)n2-c2ccccc2C)c2ccccc2)cc1Cl (stereo not given)
AC50 (Paired box protein Pax-8): 15.5 µM (active)

CCOC(=O)c1sc(NC(=O)CCN2C(=O)c3cccc([N+](=O)[O-])c3C2=O)c(C(=O)OCC)c1C
IC50 [5]: 5.98 µM (active)

CC(NC(=O)c1ccccc1NC(=O)CN1CCc2ccccc2C1)c1ccccc1 (stereo not given)
AC50 [10]: 9.12 µM (active)
AC50 [11]: 49.2 µM (active)

Cc1ccc(-c2csc(NC(=O)c3cccc(C)c3)c2C(=O)O)cc1
IC50 [5]: 11.8 µM (active)

CC(NC(=O)C1CC1)C(c1cccs1)N1CCN(c2ccccc2)CC1 (stereo not given)
AC50 [1]: 0.362 µM (active)

CC1CCCCC12NC(=O)N(CC(=O)Nc1ccc(S(=O)(=O)Nc3ncccn3)cc1)C2=O (stereo not given)
AC50 [1]: 6.47 µM (active)

COc1cc(C(=O)NC2CC(C)(C)CC(C)(C)C2)ccc1OC1CCN(C(C)=O)CC1
IC50 [5]: 13.8 µM (active)

C=C(C)CSc1nnc(CCCCCNC(=O)OC(C)(C)C)o1
IC50 [5]: 6.92 µM (active)

COCCn1/c(=N/C(=O)c2sc3ccccc3c2Cl)sc2cc(S(N)(=O)=O)ccc21
EC50 [6]: 23.2 µM (active)
EC50 [7]: 22.5 µM (active)

COc1ccc(NC(=O)Nc2ccc3c(c2)C(=O)N([C@@H](C)CO)C[C@@H](C)[C@@H](CN(C)Cc2ccc(C(F)(F)F)cc2)OCCCC[C@@H](C)O3)cc1
AC50 (Paired box protein Pax-8): 8.18 µM (active)

O=C(C[C@H]1CC[C@H]2[C@@H](COC[C@@H](O)CN2Cc2ccc(Oc3ccccc3)cc2)O1)N1CCCCC1
AC50 (Paired box protein Pax-8): 15 µM (active)

Cc1ccc(-c2nnc(S)n2/N=C/c2c(C)nn(-c3ccccc3)c2O)cc1
AC50 [1]: 13.5 µM (active)

CC1(C)CC(=O)C(/C=N/c2ccc(O)cc2)=C(O)C1
IC50 (Large T antigen): 5.53 µM (active)
IC50 [12]: 17 µM (active)

O=C(CCn1cnc2ccccc21)N/N=C/c1ccc(O)cc1
IC50 (Large T antigen): 14.2 µM (active)
IC50 [12]: 51.6 µM (active)
